Test results as given in the supplement of paper PMC13207355.

Assays:
Conditions in all cases: exposure time: 72 h
[1] = tested on: E31 (patient-derived glioblastoma stem cells of proneural subtype); assay: surviving fraction (nuclei count normalised to DMSO); higher = more cells surviving (less toxic)
[2] = tested on: E21 (patient-derived glioblastoma stem cells of mesenchymal subtype); assay: as above
[3] = tested on: E28 (patient-derived glioblastoma stem cells of classical subtype); assay: as above
[4] = tested on: E34 (patient-derived glioblastoma stem cells of proneural subtype); assay: as above
[5] = tested on: E57 (patient-derived glioblastoma stem cells of mesenchymal subtype); assay: as above
[6] = tested on: FT3469 (normal neural stem cell line); assay: as above
[7] = tested on: E13 (patient-derived glioblastoma stem cells of classical subtype); assay: as above
[8] = tested on: E31; assay: phenotypic distance (Euclidean, principal components) from DMSO controls (arbitrary units); higher = stronger morphological change
[9] = tested on: E21; assay: as above
[10] = tested on: E28; assay: as above
[11] = tested on: E34; assay: as above
[12] = tested on: E57; assay: as above
[13] = tested on: FT3469; assay: as above
[14] = tested on: E13; assay: as above
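Wherever phenotypic distance (Euclidean, principal components) from DMSO controls is given: cell Painting imaging in 384-well plates, CellProfiler features reduced to at least 20 principal components, Euclidean distance versus same-plate DMSO vehicle wells (0.1% v/v), median over six images per well.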
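Wherever surviving fraction (nuclei count normalised to DMSO) is given: nuclei counted by high-content imaging of Hoechst-stained cells in laminin-coated 384-well plates, relative to 0.1% DMSO vehicle wells, with staurosporine as cell-death control.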

Cc1ccc(S(=O)(=O)/C=C/C#N)cc1 [Bay 11-7082]
Conditions | phenotypic distance | surviving fraction
[1], 4.1 nM | – | 0.981
[1], 12.3 nM | – | 1.12
[1], 37 nM | – | 1.07
[1], 111.1 nM | – | 0.915
[1], 333.3 nM | – | 0.833
[1], 1000 nM | – | 0.574
[1], 3000 nM | – | 0.00325
[2], 4.1 nM | – | 1.01
[2], 12.3 nM | – | 1.06
[2], 37 nM | – | 0.902
[2], 111.1 nM | – | 1
[2], 333.3 nM | – | 0.952
[2], 1000 nM | – | 0.67
[2], 3000 nM | – | 0.000991
[3], 4.1 nM | – | 1.16
[3], 12.3 nM | – | 1.07
[3], 37 nM | – | 1.02
[3], 111.1 nM | – | 0.918
[3], 333.3 nM | – | 0.805
[3], 1000 nM | – | 0.523
[3], 3000 nM | – | 0.00427
[4], 4.1 nM | – | 1.17
[4], 12.3 nM | – | 0.972
[4], 37 nM | – | 1.03
[4], 111.1 nM | – | 0.881
[4], 333.3 nM | – | 1.04
[4], 1000 nM | – | 0.841
[4], 3000 nM | – | 0.208
[5], 4.1 nM | – | 0.965
[5], 12.3 nM | – | 0.935
[5], 37 nM | – | 0.978
[5], 111.1 nM | – | 0.894
[5], 333.3 nM | – | 0.905
[5], 1000 nM | – | 0.712
[5], 3000 nM | – | 0.107
[6], 4.1 nM | – | 0.987
[6], 12.3 nM | – | 0.984
[6], 37 nM | – | 0.932
[6], 111.1 nM | – | 0.814
[6], 333.3 nM | – | 0.809
[6], 1000 nM | – | 0.714
[6], 3000 nM | – | 0.0259
[7], 4.1 nM | – | 0.964
[7], 12.3 nM | – | 1.06
[7], 37 nM | – | 1.03
[7], 111.1 nM | – | 0.988
[7], 333.3 nM | – | 0.976
[7], 1000 nM | – | 0.692
[7], 3000 nM | – | 0.0324
[8], 4.1 nM | 0.798 | –
[8], 12.3 nM | 0.511 | –
[8], 37 nM | 0.513 | –
[8], 111.1 nM | 0.736 | –
[8], 333.3 nM | 0.957 | –
[8], 1000 nM | 1.61 | –
[8], 3000 nM | 15.2 | –
[9], 4.1 nM | 0.363 | –
[9], 12.3 nM | 0.689 | –
[9], 37 nM | 0.461 | –
[9], 111.1 nM | 0.482 | –
[9], 333.3 nM | 0.803 | –
[9], 1000 nM | 2.09 | –
[9], 3000 nM | 18.7 | –
[10], 4.1 nM | 0.601 | –
[10], 12.3 nM | 0.591 | –
[10], 37 nM | 0.652 | –
[10], 111.1 nM | 1.11 | –
[10], 333.3 nM | 1.33 | –
[10], 1000 nM | 1.83 | –
[10], 3000 nM | 16.4 | –
[11], 4.1 nM | 1.17 | –
[11], 12.3 nM | 0.478 | –
[11], 37 nM | 0.466 | –
[11], 111.1 nM | 0.813 | –
[11], 333.3 nM | 0.985 | –
[11], 1000 nM | 0.91 | –
[11], 3000 nM | 9.42 | –
[12], 4.1 nM | 0.529 | –
[12], 12.3 nM | 0.37 | –
[12], 37 nM | 0.668 | –
[12], 111.1 nM | 0.846 | –
[12], 333.3 nM | 1.16 | –
[12], 1000 nM | 2.8 | –
[12], 3000 nM | 8.7 | –
[13], 4.1 nM | 0.889 | –
[13], 12.3 nM | 0.728 | –
[13], 37 nM | 0.551 | –
[13], 111.1 nM | 0.796 | –
[13], 333.3 nM | 1.04 | –
[13], 1000 nM | 2.13 | –
[13], 3000 nM | 17.6 | –
[14], 4.1 nM | 0.928 | –
[14], 12.3 nM | 0.789 | –
[14], 37 nM | 0.388 | –
[14], 111.1 nM | 0.428 | –
[14], 333.3 nM | 0.7 | –
[14], 1000 nM | 2.5 | –
[14], 3000 nM | 13.2 | –

Nc1ncn(C2OC(CO)C(O)C2O)c(=O)n1 (stereo unspecified) [Azacytidine-5]
Conditions | phenotypic distance | surviving fraction
[1], 4.1 nM | – | 0.962
[1], 12.3 nM | – | 0.827
[1], 37 nM | – | 0.96
[1], 111.1 nM | – | 0.986
[1], 333.3 nM | – | 1.04
[1], 1000 nM | – | 0.731
[1], 3000 nM | – | 0.439
[2], 4.1 nM | – | 0.945
[2], 12.3 nM | – | 0.932
[2], 37 nM | – | 1.07
[2], 111.1 nM | – | 0.892
[2], 333.3 nM | – | 0.978
[2], 1000 nM | – | 0.779
[2], 3000 nM | – | 0.634
[3], 4.1 nM | – | 0.969
[3], 12.3 nM | – | 1.09
[3], 37 nM | – | 0.969
[3], 111.1 nM | – | 1.1
[3], 333.3 nM | – | 0.952
[3], 1000 nM | – | 1.15
[3], 3000 nM | – | 0.764
[4], 4.1 nM | – | 0.935
[4], 12.3 nM | – | 0.979
[4], 37 nM | – | 0.89
[4], 111.1 nM | – | 1.09
[4], 333.3 nM | – | 1.04
[4], 1000 nM | – | 0.914
[4], 3000 nM | – | 0.858
[5], 4.1 nM | – | 0.979
[5], 12.3 nM | – | 1.09
[5], 37 nM | – | 0.948
[5], 111.1 nM | – | 0.974
[5], 333.3 nM | – | 0.859
[5], 1000 nM | – | 0.702
[5], 3000 nM | – | 0.411
[6], 4.1 nM | – | 0.953
[6], 12.3 nM | – | 1
[6], 37 nM | – | 1.1
[6], 111.1 nM | – | 0.935
[6], 333.3 nM | – | 0.809
[6], 1000 nM | – | 1.04
[6], 3000 nM | – | 0.906
[7], 4.1 nM | – | 0.948
[7], 12.3 nM | – | 0.902
[7], 37 nM | – | 0.957
[7], 111.1 nM | – | 1
[7], 333.3 nM | – | 1.01
[7], 1000 nM | – | 0.894
[7], 3000 nM | – | 0.634
[8], 4.1 nM | 0.548 | –
[8], 12.3 nM | 0.901 | –
[8], 37 nM | 0.564 | –
[8], 111.1 nM | 0.874 | –
[8], 333.3 nM | 1.27 | –
[8], 1000 nM | 1.11 | –
[8], 3000 nM | 2.48 | –
[9], 4.1 nM | 1.45 | –
[9], 12.3 nM | 0.512 | –
[9], 37 nM | 0.843 | –
[9], 111.1 nM | 1.36 | –
[9], 333.3 nM | 1.28 | –
[9], 1000 nM | 1.92 | –
[9], 3000 nM | 2.82 | –
[10], 4.1 nM | 0.577 | –
[10], 12.3 nM | 0.65 | –
[10], 37 nM | 0.956 | –
[10], 111.1 nM | 0.825 | –
[10], 333.3 nM | 3.86 | –
[10], 1000 nM | 0.76 | –
[10], 3000 nM | 1.01 | –
[11], 4.1 nM | 0.787 | –
[11], 12.3 nM | 0.546 | –
[11], 37 nM | 0.387 | –
[11], 111.1 nM | 0.835 | –
[11], 333.3 nM | 0.732 | –
[11], 1000 nM | 0.672 | –
[11], 3000 nM | 1.24 | –
[12], 4.1 nM | 0.265 | –
[12], 12.3 nM | 1.15 | –
[12], 37 nM | 0.6 | –
[12], 111.1 nM | 0.593 | –
[12], 333.3 nM | 1.38 | –
[12], 1000 nM | 2.03 | –
[12], 3000 nM | 3.86 | –
[13], 4.1 nM | 0.816 | –
[13], 12.3 nM | 0.612 | –
[13], 37 nM | 0.486 | –
[13], 111.1 nM | 1.17 | –
[13], 333.3 nM | 0.757 | –
[13], 1000 nM | 0.865 | –
[13], 3000 nM | 1.77 | –
[14], 4.1 nM | 0.774 | –
[14], 12.3 nM | 0.925 | –
[14], 37 nM | 0.631 | –
[14], 111.1 nM | 1.16 | –
[14], 333.3 nM | 1.01 | –
[14], 1000 nM | 2.56 | –
[14], 3000 nM | 4.39 | –
